US11226337B2, “Chemoproteomic profiling of protein electrophilic and oxidative post-translational modifications” (Zenagem, LLC, priority 2017, dated 2022)

What was measured:
Experiment in all cases: SILAC RP-ABPP
Format in all cases: cell-based
[1] = biological target: T1, PLBD2 Putative phospholipase Blike 2 (Q8NHP8) (Homo sapiens, UniProt Q8NHP8); settings: SILAC H/L, MDA-MB-231
T1 construct: endogenous in cells; host or cells: HEK293T or MDA-MB-231
Method: (§1) For MS-based experiments, labelling was performed in a similar manner as described above in Example 2, maintaining the same concentrations of probes. Modifications to this protocol included using isotopically ‘light’ and ‘heavy’ SILAC cells that were also grown to near complete confluence prior to treatment. Isotopically light cells were treated with the non-clickable hydrazine probe (at the same concentration as the probe in ‘enrichment’ experiments) or the probe in the presence of 10-fold excess non-clickable hydrazine probe as a competitor (in ‘competition’ experiments). Isotopically heavy cells were treated with the probe for both types of experiments. These treatments were performed in non-SILAC media. Following treatments, cells were washed with cold PBS to remove the probe-containing media, harvested by scraping, collected by centrifugation (1,400 g, 3 min, 4° C.), washed again by resuspension in cold PBS and frozen as pellets at −80° C. until use.
(§2) The fractionated equimolar mixture of heavy and light soluble proteomes (1-1.5 mg) was diluted to 1 mL in PBS. Click reactions were scaled accordingly (except for biotin-azide) to maintain final concentrations of 0.1 mM TBTA, 1 mM CuSO4, 100 μM biotin-azide (10 mM in DMSO) and 1 mM TCEP. The mixture was vortexed and placed on a rotator at ambient temperature for 1 hour. Sequential addition of and mixture with pre-chilled methanol (MeOH, 2 mL), chloroform (CHCl3, 0.5 mL) and PBS (1 mL) on ice quenched the reaction. The precipitated proteome was centrifuged (5,000 g, 10 min, 4° C.) to fractionate the protein interphase from the organic and aqueous solvent layers. The protein pellet was washed with cold 1:1 MeOH:CHCl3 (3×1 mL), mildly sonicated in cold 4:1 MeOH:CHCl3 (2.5 mL) and pelleted once more by centrifugation (5,000 g, 10 min, 4° C.) to ensure click reagents were efficiently removed.
(§3) Heavy and light parent ion chromatograms associated with successfully identified peptides were extracted and compared using CIMAGE software as previously described^69. At least one ion of a co-eluting heavy-light pair must be accurately identified from a fragmentation event that occurred within the retention time window (±10 min) of parent ion elution. To ensure that the correct pair of peaks is quantified, chromatograms are extracted within a 10 ppm error tolerance of the predicted m/z, the signal-to-noise ratio must be >2.5 and the ‘co-elution correlation score’ and ‘envelope correlation score’ must have R^2 values ≥0.8. In addition, peptides detected as ‘singletons,’ where only the heavy ion of a peptide pair was identified, but for which passed all other filtering parameters, are given a default assigned ratio of ‘20,’ which is defined as any measured ratio that is ≥20.
(§4) To further eliminate false positives and any stochastic variability in the data, protein ratios were then determined by the median peptide ratio derived from three or more unique quantified peptides. Protein ratios that complied with these criteria from a single experiment were then averaged with ratios acquired from ≥3 replicates to provide final values for each type of experiment in both cell lines with both probes. […] Most importantly, there are no robustly measured ratios for proteins identified as probe 1 targets that had measured ratios of ˜1 with probe 2. Probe targets in HEK293T and MDA-MB-231 cells represent data combined from ≥3 independent biological replicates with each cell type performed with several independent batches of synthesized probes over a period of almost two years.
(§5) Analogous experiments were also performed with the aryl hydrazine probe 2 (1 mM, 0.5 hour), which furnished a larger list of high-reactivity proteins (33 in total; Table 3) that contained several of the targets of probe 1 (compared in Table 4), as well as additional proteins that may reflect an expanded chemical reactivity for probe 2.

NEU1 Sialidase1 (Q99519) = biological target: T2, NEU1 Sialidase1 (Q99519) (Homo sapiens, UniProt Q99519); settings: SILAC H/L, MDA-MB-231
T2 construct: endogenous in cells; host or cells: HEK293T or MDA-MB-231
Method: as §1, §2, §3, §4, §5

[2] = biological target: T3, CYP27A1 Sterol 26hydroxylase, mitochondrial (Q02318) (Homo sapiens, UniProt Q02318); settings: SILAC H/L, MDA-MB-231
T3 construct: endogenous in cells; host or cells: HEK293T or MDA-MB-231
Method: as §1, §2, §3, §4, §5

[3] = biological target: T4, PTGR2 Prostaglandin reductase 2 (Q8N8N7) (Homo sapiens, UniProt Q8N8N7); settings: SILAC H/L, MDA-MB-231
T4 construct: endogenous in cells; host or cells: HEK293T or MDA-MB-231
Method: as §1, §2, §3, §4, §5

[4] = biological target: T5, CTSS Cathepsin S (P25774) (Homo sapiens, UniProt P25774); settings: SILAC H/L, MDA-MB-231
T5 construct: endogenous in cells; host or cells: HEK293T or MDA-MB-231
Method: as §1, §2, §3, §4, §5

[5] = biological target: T6, FADS1 Fatty acid desaturase 1 (O60427) (Homo sapiens, UniProt O60427); settings: SILAC H/L, HEK293T
T6 construct: In Situ Labelling of Cells with Hydrazine Probes for MS Experiments; endogenous in cells; host or cells: HEK293T and/or MDA-MB-231
Method: as §1, §2, §3, §4, §5

[6] = biological target: T7, SELENBP1 Seleniumbinding protein 1 (Q13228) (Homo sapiens, UniProt Q13228); settings: SILAC H/L, MDA-MB-231
T7 construct: endogenous in cells; host or cells: HEK293T or MDA-MB-231
Method: as §1, §2, §3, §4, §5

[7] = biological target: T8, FTL Ferritin light chain (P02792) (Homo sapiens, UniProt P02792); settings: SILAC H/L, MDA-MB-231
T8 construct: endogenous in cells; host or cells: HEK293T or MDA-MB-231
Method: as §1, §2, §3, §4, §5

[8] = biological target: T9, P4HA2 Prolyl 4hydroxylase subunit alpha2 (O15460) (Homo sapiens, UniProt O15460); settings: SILAC H/L, MDA-MB-231
T9 construct: endogenous in cells; host or cells: HEK293T or MDA-MB-231
Method: as §1, §2, §3, §4, §5

[9] = biological target: T10, CMBL Carboxymethylenebutenolidase homolog (Q96DG6) (Homo sapiens, UniProt Q96DG6); settings: SILAC H/L, HEK293T
T10 construct: In Situ Labelling of Cells with Hydrazine Probes for MS Experiments; endogenous in cells; host or cells: HEK293T and/or MDA-MB-231
Method: as §1, §2, §3, §4, §5

[10] = biological target: T11, PXDN Peroxidasin homolog (Q92626) (Homo sapiens, UniProt Q92626); settings: SILAC H/L, MDA-MB-231
T11 construct: In Situ Labelling of Cells with Hydrazine Probes for MS Experiments; endogenous in cells; host or cells: HEK293T and/or MDA-MB-231
Method: as §1, §2, §3, §4, §5

[11] = biological target: T12, ACOX3 Peroxisomal acylcoenzyme A oxidase 3 (O15254) (Homo sapiens, UniProt O15254); settings: SILAC H/L, MDA-MB-231
T12 construct: endogenous in cells; host or cells: HEK293T or MDA-MB-231
Method: as §1, §2, §3, §4, §5

[12] = biological target: T13, ALKBH1 Alkylated DNA repair protein alkB (Q13686) (Homo sapiens, UniProt Q13686); settings: SILAC H/L, HEK293T
T13 construct: In Situ Labelling of Cells with Hydrazine Probes for MS Experiments; endogenous in cells
Method: as §1, §2, §3, §4, §5

[13] = biological target: T14, RRM2 Ribonucleosidediphosphate reductase (P31350) (Homo sapiens, UniProt P31350); settings: SILAC H/L, HEK293T
T14 construct: In Situ Labelling of Cells with Hydrazine Probes for MS Experiments; endogenous in cells; host or cells: HEK293T and/or MDA-MB-231
Method: as §1, §2, §3, §4, §5

T12 sequence (O15254 whole entry): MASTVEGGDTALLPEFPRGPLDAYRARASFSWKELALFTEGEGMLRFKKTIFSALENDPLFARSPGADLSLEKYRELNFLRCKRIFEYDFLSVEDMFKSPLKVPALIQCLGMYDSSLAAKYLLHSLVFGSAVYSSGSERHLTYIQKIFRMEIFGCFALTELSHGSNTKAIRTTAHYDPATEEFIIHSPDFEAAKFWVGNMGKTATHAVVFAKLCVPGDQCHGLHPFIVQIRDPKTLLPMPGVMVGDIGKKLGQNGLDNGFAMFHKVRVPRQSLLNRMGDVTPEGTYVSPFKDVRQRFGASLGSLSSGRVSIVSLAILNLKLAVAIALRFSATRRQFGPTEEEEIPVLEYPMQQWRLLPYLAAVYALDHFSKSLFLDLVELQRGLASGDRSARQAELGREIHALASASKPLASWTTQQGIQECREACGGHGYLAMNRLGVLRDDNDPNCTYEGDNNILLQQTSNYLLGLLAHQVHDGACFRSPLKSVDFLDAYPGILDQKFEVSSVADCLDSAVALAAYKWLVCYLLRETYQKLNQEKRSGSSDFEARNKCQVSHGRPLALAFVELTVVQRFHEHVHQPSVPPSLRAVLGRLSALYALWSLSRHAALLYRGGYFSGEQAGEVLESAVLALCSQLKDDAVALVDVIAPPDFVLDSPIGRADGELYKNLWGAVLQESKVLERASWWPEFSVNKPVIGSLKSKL
T10 sequence (Q96DG6 whole entry): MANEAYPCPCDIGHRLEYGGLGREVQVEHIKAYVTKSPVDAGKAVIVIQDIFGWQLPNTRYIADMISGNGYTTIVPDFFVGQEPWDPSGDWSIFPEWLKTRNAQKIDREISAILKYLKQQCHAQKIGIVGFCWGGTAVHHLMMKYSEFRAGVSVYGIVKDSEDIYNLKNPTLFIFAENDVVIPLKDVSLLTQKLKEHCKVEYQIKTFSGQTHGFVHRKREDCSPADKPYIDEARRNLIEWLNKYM
T3 sequence (Q02318 34-531): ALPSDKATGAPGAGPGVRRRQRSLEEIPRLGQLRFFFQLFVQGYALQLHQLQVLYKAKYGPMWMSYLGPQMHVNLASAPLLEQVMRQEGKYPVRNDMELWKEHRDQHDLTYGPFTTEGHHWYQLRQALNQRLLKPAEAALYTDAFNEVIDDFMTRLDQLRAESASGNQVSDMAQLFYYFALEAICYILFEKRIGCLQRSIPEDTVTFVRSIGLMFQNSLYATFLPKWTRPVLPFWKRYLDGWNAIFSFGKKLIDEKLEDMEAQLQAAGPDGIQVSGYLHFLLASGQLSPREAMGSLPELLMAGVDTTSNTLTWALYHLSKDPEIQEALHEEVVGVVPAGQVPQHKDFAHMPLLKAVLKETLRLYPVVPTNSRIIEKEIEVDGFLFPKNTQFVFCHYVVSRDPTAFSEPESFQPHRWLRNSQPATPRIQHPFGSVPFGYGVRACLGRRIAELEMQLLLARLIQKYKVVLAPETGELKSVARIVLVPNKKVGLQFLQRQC
T1 sequence (Q8NHP8 42-589): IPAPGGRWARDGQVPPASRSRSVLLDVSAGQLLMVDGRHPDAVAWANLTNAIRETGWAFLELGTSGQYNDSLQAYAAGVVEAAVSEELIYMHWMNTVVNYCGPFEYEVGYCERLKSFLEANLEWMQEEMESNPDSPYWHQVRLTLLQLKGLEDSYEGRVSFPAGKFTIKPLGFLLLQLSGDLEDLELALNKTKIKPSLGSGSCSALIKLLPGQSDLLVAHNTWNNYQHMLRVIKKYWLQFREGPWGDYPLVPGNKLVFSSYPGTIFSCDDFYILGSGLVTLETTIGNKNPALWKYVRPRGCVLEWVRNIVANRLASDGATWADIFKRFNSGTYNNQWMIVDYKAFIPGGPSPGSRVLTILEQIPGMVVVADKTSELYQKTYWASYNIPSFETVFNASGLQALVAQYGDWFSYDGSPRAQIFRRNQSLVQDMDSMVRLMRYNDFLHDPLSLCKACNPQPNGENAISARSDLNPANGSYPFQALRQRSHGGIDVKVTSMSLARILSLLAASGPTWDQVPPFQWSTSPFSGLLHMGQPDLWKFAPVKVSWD
T13 sequence (Q13686 whole entry): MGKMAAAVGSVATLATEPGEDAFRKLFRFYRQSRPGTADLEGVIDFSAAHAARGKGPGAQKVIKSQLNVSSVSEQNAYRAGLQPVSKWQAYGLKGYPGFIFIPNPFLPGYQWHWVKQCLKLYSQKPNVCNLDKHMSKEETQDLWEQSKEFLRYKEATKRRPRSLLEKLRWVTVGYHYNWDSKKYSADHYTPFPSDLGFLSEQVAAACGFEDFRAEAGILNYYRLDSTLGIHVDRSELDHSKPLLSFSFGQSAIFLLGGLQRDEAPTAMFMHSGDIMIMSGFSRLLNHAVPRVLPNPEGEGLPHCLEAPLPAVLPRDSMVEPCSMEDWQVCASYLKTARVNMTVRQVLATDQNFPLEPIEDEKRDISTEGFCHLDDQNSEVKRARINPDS
T7 sequence (Q13228 whole entry): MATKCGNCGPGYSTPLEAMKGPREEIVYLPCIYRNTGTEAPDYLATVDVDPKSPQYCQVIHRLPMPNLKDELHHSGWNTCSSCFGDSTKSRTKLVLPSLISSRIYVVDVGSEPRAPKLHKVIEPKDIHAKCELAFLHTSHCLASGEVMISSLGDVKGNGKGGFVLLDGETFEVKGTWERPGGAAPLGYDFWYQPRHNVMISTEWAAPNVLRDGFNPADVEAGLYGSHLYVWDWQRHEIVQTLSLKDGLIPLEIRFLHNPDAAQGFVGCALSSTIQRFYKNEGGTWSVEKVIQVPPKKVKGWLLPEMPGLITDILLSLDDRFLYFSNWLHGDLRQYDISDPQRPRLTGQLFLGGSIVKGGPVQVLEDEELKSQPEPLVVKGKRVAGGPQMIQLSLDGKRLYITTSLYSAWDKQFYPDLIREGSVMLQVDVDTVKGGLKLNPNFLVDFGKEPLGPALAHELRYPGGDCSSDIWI
T4 sequence (Q8N8N7 whole entry): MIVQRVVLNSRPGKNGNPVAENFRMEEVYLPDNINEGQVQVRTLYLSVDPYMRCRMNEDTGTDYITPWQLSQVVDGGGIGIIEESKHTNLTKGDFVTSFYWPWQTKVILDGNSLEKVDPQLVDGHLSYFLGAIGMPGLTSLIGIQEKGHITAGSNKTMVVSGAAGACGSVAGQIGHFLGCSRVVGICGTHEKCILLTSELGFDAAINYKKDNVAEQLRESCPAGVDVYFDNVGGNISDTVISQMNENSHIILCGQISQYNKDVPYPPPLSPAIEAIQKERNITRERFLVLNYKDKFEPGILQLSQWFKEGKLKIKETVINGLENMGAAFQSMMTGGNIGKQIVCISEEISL
T9 sequence (O15460 22-535): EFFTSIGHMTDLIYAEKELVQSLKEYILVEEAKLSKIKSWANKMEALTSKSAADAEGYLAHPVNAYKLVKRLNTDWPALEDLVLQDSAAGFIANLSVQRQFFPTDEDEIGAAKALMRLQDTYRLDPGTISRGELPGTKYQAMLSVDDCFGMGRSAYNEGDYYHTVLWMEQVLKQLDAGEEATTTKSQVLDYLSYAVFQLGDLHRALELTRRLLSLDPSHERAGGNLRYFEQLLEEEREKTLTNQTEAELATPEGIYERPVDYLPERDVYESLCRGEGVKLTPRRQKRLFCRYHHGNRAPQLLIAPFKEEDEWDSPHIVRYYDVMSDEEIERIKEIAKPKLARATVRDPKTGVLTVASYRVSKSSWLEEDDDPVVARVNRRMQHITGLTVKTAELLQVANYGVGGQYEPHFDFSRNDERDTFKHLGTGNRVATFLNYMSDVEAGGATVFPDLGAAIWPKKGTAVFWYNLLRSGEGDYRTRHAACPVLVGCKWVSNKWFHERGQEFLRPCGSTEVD
T9 sequence (P07237 18-508 partner): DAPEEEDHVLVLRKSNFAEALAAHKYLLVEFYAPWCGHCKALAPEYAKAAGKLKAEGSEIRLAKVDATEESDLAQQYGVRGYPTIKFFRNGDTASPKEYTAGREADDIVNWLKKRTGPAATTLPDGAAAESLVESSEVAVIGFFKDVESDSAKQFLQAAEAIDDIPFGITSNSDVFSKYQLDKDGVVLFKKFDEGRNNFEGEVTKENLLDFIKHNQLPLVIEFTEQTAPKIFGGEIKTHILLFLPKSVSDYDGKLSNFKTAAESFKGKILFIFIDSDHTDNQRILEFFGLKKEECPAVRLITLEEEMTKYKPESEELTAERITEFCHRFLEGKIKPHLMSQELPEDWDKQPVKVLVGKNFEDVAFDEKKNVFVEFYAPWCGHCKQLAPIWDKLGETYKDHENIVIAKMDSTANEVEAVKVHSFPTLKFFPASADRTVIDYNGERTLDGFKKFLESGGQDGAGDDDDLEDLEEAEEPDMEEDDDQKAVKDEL
T8 sequence (P02792 2-175): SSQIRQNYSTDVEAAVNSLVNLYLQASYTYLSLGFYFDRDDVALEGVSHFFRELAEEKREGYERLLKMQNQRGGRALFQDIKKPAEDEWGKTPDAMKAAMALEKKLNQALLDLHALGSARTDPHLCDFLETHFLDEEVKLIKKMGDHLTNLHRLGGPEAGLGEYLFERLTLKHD
T5 sequence (P25774 115-331): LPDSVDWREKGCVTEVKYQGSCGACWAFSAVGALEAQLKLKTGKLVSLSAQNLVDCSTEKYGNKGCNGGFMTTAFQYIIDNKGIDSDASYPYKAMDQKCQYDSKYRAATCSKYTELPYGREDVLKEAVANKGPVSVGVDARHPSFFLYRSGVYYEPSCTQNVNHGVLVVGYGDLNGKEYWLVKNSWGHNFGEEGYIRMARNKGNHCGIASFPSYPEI

## C#CCCNC(=O)c1ccc(NN)cc1.Cl [probe 2, N-(but-3-yn-1-yl)-4-hydrazinylbenzamide hydrochloride]
[1]; probe 2 1 mM 0.5 h vs probe 4
  enrichment ratioavg: 9
[1]; probe 2 vs probe 2+10x probe 4
  competition ratioavg: 3
NEU1 Sialidase1 (Q99519); probe 2 1 mM 0.5 h vs probe 4
  enrichment ratioavg: 5
NEU1 Sialidase1 (Q99519); probe 2 vs probe 2+10x probe 4
  competition ratioavg: 3
[2]; probe 2 1 mM 0.5 h vs probe 4
  enrichment ratioavg: 20
[2]; probe 2 vs probe 2+10x probe 4
  competition ratioavg: 3
[3]; probe 2 1 mM 0.5 h vs probe 4
  enrichment ratioavg: 15
[3]; probe 2 vs probe 2+10x probe 4
  competition ratioavg: 1
[4]; probe 2 1 mM 0.5 h vs probe 4
  enrichment ratioavg: 18
[4]; probe 2 vs probe 2+10x probe 4
  competition ratioavg: 3
[5]; probe 2 1 mM 0.5 h vs probe 4
  enrichment ratioavg: 20
[5]; probe 2 vs probe 2+10x probe 4
  competition ratioavg: 4
[6]; probe 2 1 mM 0.5 h vs probe 4
  enrichment ratioavg: 20
[6]; probe 2 vs probe 2+10x probe 4
  competition ratioavg: 3
[7]; probe 2 1 mM 0.5 h vs probe 4
  enrichment ratioavg: 7
[7]; probe 2 vs probe 2+10x probe 4
  competition ratioavg: 3
[8]; probe 2 1 mM 0.5 h vs probe 4
  enrichment ratioavg: 20
[8]; probe 2 vs probe 2+10x probe 4
  competition ratioavg: 3
[9]; probe 2 1 mM 0.5 h vs probe 4
  enrichment ratioavg: 18
[9]; probe 2 vs probe 2+10x probe 4
  competition ratioavg: 3
[10]; probe 2 1 mM 0.5 h vs probe 4
  enrichment ratioavg: 20
[10]; probe 2 vs probe 2+10x probe 4
  competition ratioavg: 5
[11]; probe 2 1 mM 0.5 h vs probe 4
  enrichment ratioavg: 20
[11]; probe 2 vs probe 2+10x probe 4
  competition ratioavg: 1
[12]; probe 2 1 mM 0.5 h vs probe 4
  enrichment ratioavg: 20
[12]; probe 2 vs probe 2+10x probe 4
  competition ratioavg: 8
[13]; probe 2 1 mM 0.5 h vs probe 4
  enrichment ratioavg: 13
[13]; probe 2 vs probe 2+10x probe 4
  competition ratioavg: 1
